Reference: patent US11787840B2, “Compositions and methods for treating and preventing autoimmune induced cardiac long QT syndrome” (The United States Government As Represented By The …, priority 2019, dated 2023)
Entries after “also recorded” stand apart in the source; their conditions may differ.

System: Ro52-immunized guinea-pigs (anti-Ro Abs associated QTc prolongation)
Assay: QTc (ECG) in Ro52-immunized guinea pigs after linear peptide 4
Type: in vivo, guinea pig
Details: linear peptide 4, 2 mg/kg, one-time injection at day 15; ECG through day 30; versus immunized control without peptide
From the text: Immunization and peptide administration protocol. The overall experimental protocol for immunization and administration of the peptide used to generate data in FIG. 2 is shown in FIG. 6. Specifically, two group of guinea pigs (control and experimental) were first immunized subcutaneously initially on day 0 (Do) with Ro52 antigen followed by a booster at days 10 and 15, and anti-Ro antibodies levels were monitored by ELISA. The control group was not administered any peptide treatment except the immunization. The experimental group was injected with the linear peptide #4 (2 mg/kg) at day 15.

GNMEQPHMDSRIGWLHNLGDQ [Peptide 4]
effect on QTc interval: rescued and normalized the QTc interval; also recorded: drastic shortening of QTc
